From patent US9920339B2, “Methods, reagents and cells for biosynthesizing compounds” (INVISTA North America S.á r.l., priority 2014, dated 2018)

Columns and labels:
[1] = biological target: T1, Mycobacterium marinum carboxylate reductase (SEQ ID NO: 2), enhanced by the gene product of sfp (Mycobacterium marinum, UniProt B2HN69); experiment: carboxylate reductase enzyme activity assay, NADPH consumption at 340 nm; assay type: biochemical; conditions: SEQ ID NO 2 with sfp; 2 mM substrate, 10 mM MgCl2, 1 mM ATP, 1 mM NADPH, pH 7.5, room temperature, 20 min; absorbance at 340 nm
T1 construct: His-tag (N); made in house; host or cells: E. coli BL21[DE3], pET Duet
Experimental: (§1) A nucleotide sequence encoding a His-tag was added to the genes from Mycobacterium marinum, Mycobacterium smegmatis, Segniliparus rugosus, Mycobacterium massiliense, and Segniliparus rotundus that encode the carboxylate reductases of SEQ ID NOs: 2-4, 6 and 7, respectively (GenBank Accession Nos. ACC40567.1, ABK71854.1, EFV11917.1, EIV11143.1, and ADG98140.1, respectively) (see FIG. 10) such that N-terminal HIS tagged carboxylate reductases could be produced. Each of the modified genes was cloned into a pET Duet expression vector alongside a sfp gene encoding a His-tagged phosphopantetheine transferase from Bacillus subtilis, both under control of the T7 promoter. Each expression vector was transformed into a BL21[DE3] E. coli host along with the expression vectors from Example 3. Each resulting recombinant E. coli strain was cultivated at 37° C. in a 250 mL shake flask culture containing 50 mL LB media and antibiotic selection pressure, with shaking at 230 rpm. Each culture was induced overnight at 37° C. using an auto-induction media.
(§2) The pellet from each induced shake flask culture was harvested via centrifugation. Each pellet was resuspended and lysed via sonication. The cell debris was separated from the supernatant via centrifugation. The carboxylate reductases and phosphopantetheine transferase were purified from the supernatant using Ni-affinity chromatography, diluted 10-fold into 50 mM HEPES buffer (pH=7.5) and concentrated via ultrafiltration.
(§3) Enzyme activity (i.e., 5-hydroxypentanoate to 5-hydroxypentanal) assays were performed in triplicate in a buffer composed of a final concentration of 50 mM HEPES buffer (pH=7.5), 2 mM 5-hydroxypentanal, 10 mM MgCl2, 1 mM ATP, and 1 mM NADPH. Each enzyme activity assay reaction was initiated by adding purified carboxylate reductase and phosphopantetheine transferase or the empty vector control to the assay buffer containing the 5-hydroxypentanoate and then incubated at room temperature for 20 min. The consumption of NADPH was monitored by absorbance at 340 nm.
(§4) The N-terminal His-tagged carboxylate reductase of SEQ ID NO 2-4 and 7 (see Example 2 and FIG. 10) was assayed using glutarate methyl ester as substrate. The enzyme activity assay was performed in triplicate in a buffer composed of a final concentration of 50 mM HEPES buffer (pH=7.5), 2 mM glutarate methyl ester, 10 mM MgCl2, 1 mM ATP and 1 mM NADPH. The enzyme activity assay reaction was initiated by adding purified carboxylate reductase and phosphopantetheine transferase or the empty vector control to the assay buffer containing the glutarate semialdehyde and then incubated at room temperature for 20 min. The consumption of NADPH was monitored by absorbance at 340 nm.

[2] = system: Mycobacterium smegmatis carboxylate reductase (SEQ ID NO: 3), enhanced by the gene product of sfp; experiment: as above; assay type: biochemical; conditions: SEQ ID NO 3 with sfp; 2 mM substrate, 10 mM MgCl2, 1 mM ATP, 1 mM NADPH, pH 7.5, room temperature, 20 min; absorbance at 340 nm
Experimental: as §1, §2, §3, §4

[3] = system: Segniliparus rugosus carboxylate reductase (SEQ ID NO: 4), enhanced by the gene product of sfp; experiment: as above; assay type: biochemical; conditions: SEQ ID NO 4 with sfp; 2 mM substrate, 10 mM MgCl2, 1 mM ATP, 1 mM NADPH, pH 7.5, room temperature, 20 min; absorbance at 340 nm
Experimental: as §1, §2, §3, §4

[4] = system: Segniliparus rotundus carboxylate reductase (SEQ ID NO: 7), enhanced by the gene product of sfp; experiment: as above; assay type: biochemical; conditions: SEQ ID NO 7 with sfp; 2 mM substrate, 10 mM MgCl2, 1 mM ATP, 1 mM NADPH, pH 7.5, room temperature, 20 min; absorbance at 340 nm
Experimental: as §1
The pellet from each induced shake flask culture was harvested via centrifugation. Each pellet was resuspended and lysed via sonication. The cell debris was separated from the supernatant via centrifugation. […]
Enzyme activity (i.e., 5-hydroxypentanoate to 5-hydroxypentanal) assays were performed in triplicate in a buffer composed of a final concentration of 50 mM HEPES buffer (pH=7.5), 2 mM 5-hydroxypentanal, 10 mM MgCl2, 1 mM ATP, and 1 mM NADPH. […] The consumption of NADPH was monitored by absorbance at 340 nm.
The N-terminal His-tagged carboxylate reductase of SEQ ID NO 7 (see Example 2 and FIG. 10) was assayed using glutarate semialdehyde as substrate. […] The consumption of NADPH was monitored by absorbance at 340 nm.
The N-terminal His-tagged carboxylate reductase of SEQ ID NO 2-4 and 7 (see Example 2 and FIG. 10) was assayed using glutarate methyl ester as substrate. […] The consumption of NADPH was monitored by absorbance at 340 nm.

[5] = system: Chromobacterium violaceum ω-transaminase (SEQ ID NO: 8); experiment: ω-transaminase enzyme activity assay, amine substrate plus pyruvate to L-alanine (cell free extract); assay type: biochemical; conditions: reverse direction, 10 mM substrate, 10 mM pyruvate, 100 μM pyridoxyl 5′ phosphate, pH 7.5, 25° C., 4 h, L-alanine by RP-HPLC
Experimental: (§5) A nucleotide sequence encoding an N-terminal His-tag was added to the genes from Chromobacterium violaceum and Rhodobacter sphaeroides encoding the ω-transaminases of SEQ ID NOs: 8 and 10 respectively (see FIG. 10) such that N-terminal HIS tagged ω-transaminases could be produced. Each of the resulting modified genes was cloned into a pET21a expression vector under control of the T7 promoter and each expression vector was transformed into a BL21[DE3] E. coli host. The resulting recombinant E. coli strains were cultivated at 37° C. in a 250 mL shake flask culture containing 50 mL LB media and antibiotic selection pressure, with shaking at 230 rpm. Each culture was induced overnight at 16° C. using 1 mM IPTG.
(§6) The pellet from each induced shake flask culture was harvested via centrifugation. Each pellet was resuspended and lysed via sonication. The cell debris was separated from the supernatant via centrifugation and the cell free extract was used immediately in enzyme activity assays.
Enzyme activity assays in the reverse direction (i.e., 5-aminopentanoate to glutarate semialdehyde) were performed in a buffer composed of a final concentration of 50 mM HEPES buffer (pH=7.5), 10 mM 5-aminopentanoate, 10 mM pyruvate and 100 μM pyridoxyl 5′ phosphate. Each enzyme activity assay reaction was initiated by adding cell free extract of the ω-transaminase gene product or the empty vector control to the assay buffer containing the 5-aminopentanoate and incubated at 25° C. for 4 h, with shaking at 250 rpm. The formation of L-alanine from pyruvate was quantified via RP-HPLC.
(§7) A nucleotide sequence encoding an N-terminal His-tag was added to the Chromobacterium violaceum, Pseudomonas aeruginosa, Pseudomonas syringae, Rhodobacter sphaeroide, Escherichia coli and Vibrio fluvialis genes encoding the ω-transaminases of SEQ ID NOs: 8-13, respectively (see FIG. 10) such that N-terminal HIS tagged ω-transaminases could be produced. The modified genes were cloned into a pET21a expression vector under the T7 promoter. Each expression vector was transformed into a BL21[DE3] E. coli host. Each resulting recombinant E. coli strain were cultivated at 37° C. in a 250 mL shake flask culture containing 50 mL LB media and antibiotic selection pressure, with shaking at 230 rpm. Each culture was induced overnight at 16° C. using 1 mM IPTG.
(§8) Enzyme activity assays in the reverse direction (i.e., 5-aminopentanol to 5-oxopentanol) were performed in a buffer composed of a final concentration of 50 mM HEPES buffer (pH=7.5), 10 mM 5-aminopentanol, 10 mM pyruvate, and 100 μM pyridoxyl 5′ phosphate. Each enzyme activity assay reaction was initiated by adding cell free extract of the ω-transaminase gene product or the empty vector control to the assay buffer containing the 5-aminopentanol and then incubated at 25° C. for 4 h, with shaking at 250 rpm. The formation of L-alanine was quantified via RP-HPLC.
as §7, with “and” for “Rhodobacter sphaeroide,”, “coli” for “coli and Vibrio fluvialis”, “8-10 and 12,” for “8-13,”
Enzyme activity assays in the reverse direction (i.e., cadaverine to 5-aminopentanal) were performed in a buffer composed of a final concentration of 50 mM HEPES buffer (pH=7.5), 10 mM cadaverine, 10 mM pyruvate, and 100 μM pyridoxyl 5′ phosphate. […]

[6] = system: Pseudomonas syringae ω-transaminase (SEQ ID NO: 10); experiment: as above; assay type: biochemical; conditions: reverse direction, 10 mM substrate, 10 mM pyruvate, 100 μM pyridoxyl 5′ phosphate, pH 7.5, 25° C., 4 h, L-alanine by RP-HPLC
Experimental: as §7, §6, §8
as §7, with “and” for “Rhodobacter sphaeroide,”, “coli” for “coli and Vibrio fluvialis”, “8-10 and 12,” for “8-13,”
as §8, with “cadaverine” for “5-aminopentanol”, “5-aminopentanal)” for “5-oxopentanol)”, “cadaverine,” for “5-aminopentanol,”
(§9) The activity of the N-terminal His-tagged ω-transaminases of SEQ ID NOs: 8, 10-13 (see Example 3, and FIG. 10) for converting N5-acetyl-1,5-diaminopentane to N5-acetyl-5-aminopentanal was assayed using a buffer composed of a final concentration of 50 mM HEPES buffer (pH=7.5), 10 mM N5-acetyl-1,5-diaminopentane, 10 mM pyruvate and 100 μM pyridoxyl 5′ phosphate. Each enzyme activity assay reaction was initiated by adding a cell free extract of the ω-transaminase or the empty vector control to the assay buffer containing the N5-acetyl-1,5-diaminopentane then incubated at 25° C. for 4 h, with shaking at 250 rpm. The formation of L-alanine was quantified via RP-HPLC.
(§10) The activity of the N-terminal His-tagged ω-transaminases of SEQ ID NOs: 8-13 (see Example 3, and FIG. 10) for converting 1-aminopentane to pentanal was assayed using a buffer composed of a final concentration of 50 mM HEPES buffer (pH=7.5), 10 mM 1-aminopentane, 10 mM pyruvate and 100 μM pyridoxyl 5′ phosphate. […]

[7] = biological target: T2, Escherichia coli ω-transaminase (SEQ ID NO: 12) (Escherichia coli, UniProt P42588); experiment: as above; assay type: biochemical; conditions: reverse direction, 10 mM substrate, 10 mM pyruvate, 100 μM pyridoxyl 5′ phosphate, pH 7.5, 25° C., 4 h, L-alanine by RP-HPLC
T2 construct: His-tag (N); made in house; host or cells: E. coli BL21[DE3], pET21a
Experimental: as §7, §6, §8
as §7, with “and” for “Rhodobacter sphaeroide,”, “coli” for “coli and Vibrio fluvialis”, “8-10 and 12,” for “8-13,”
as §8, with “cadaverine” for “5-aminopentanol”, “5-aminopentanal)” for “5-oxopentanol)”, “cadaverine,” for “5-aminopentanol,”
as §9, §10

gene product of ygjG = gene product of ygjG (Escherichia coli, UniProt P42588); conditions: Samsonova et al., 2003; cited from earlier work
[8] = system: diamine transaminase from E. coli strain B; conditions: Kim, 1964; cited from earlier work
[9] = system: Pseudomonas aeruginosa ω-transaminase (SEQ ID NO: 9); experiment: ω-transaminase enzyme activity assay, amine substrate plus pyruvate to L-alanine (cell free extract); assay type: biochemical; conditions: reverse direction, 10 mM substrate, 10 mM pyruvate, 100 μM pyridoxyl 5′ phosphate, pH 7.5, 25° C., 4 h, L-alanine by RP-HPLC
Experimental: as §7, §6, §8
as §7, with “and” for “Rhodobacter sphaeroide,”, “coli” for “coli and Vibrio fluvialis”, “8-10 and 12,” for “8-13,”
as §8, with “cadaverine” for “5-aminopentanol”, “5-aminopentanal)” for “5-oxopentanol)”, “cadaverine,” for “5-aminopentanol,”
as §9, with “8-13” for “8, 10-13”, “1-aminopentane” for “N5-acetyl-1,5-diaminopentane”, “pentanal” for “N5-acetyl-5-aminopentanal”, “1-aminopentane,” for “N5-acetyl-1,5-diaminopentane,”
as §10, with “1-aminoheptane” for “1-aminopentane”, “heptanal” for “pentanal”, “1-aminoheptane,” for “1-aminopentane,”

[10] = system: Chromobacterium violaceum ω-transaminase (SEQ ID NO: 8); experiment: as above; assay type: biochemical; conditions: forward (amine-forming) direction, inferred from the reverse assay
[11] = system: transaminase of SEQ ID NO 10; experiment: ω-transaminase enzyme activity assay in the forward direction, glutarate semialdehyde plus L-alanine to pyruvate; assay type: biochemical, Pseudomonas syringae; conditions: 10 mM glutarate semialdehyde, 10 mM L-alanine, 100 μM pyridoxyl 5′ phosphate, pH 7.5, 25° C., 4 h, pyruvate by RP-HPLC
Experimental: as §5, §6
Enzyme activity in the forward direction (i.e., glutarate semialdehyde to 5-aminopentanoate) was confirmed for the transaminase of SEQ ID NO 10. Enzyme activity assays were performed in a buffer composed of a final concentration of 50 mM HEPES buffer (pH=7.5), 10 mM glutarate semialdehyde, 10 mM L-alanine and 100 μM pyridoxyl 5′ phosphate. […] The formation of pyruvate was quantified via RP-HPLC.

[12] = system: 5-aminovalerate transaminase from Clostridium viride; conditions: Barker et al., 1987; cited from earlier work
[13] = system: 4-aminobubyrate:2-oxoglutarate transaminase from Streptomyces griseus; conditions: Yonaha et al., 1985; cited from earlier work
[14] = system: ω-transaminase from Chromobacterium violaceum (SEQ ID NO: 8); conditions: Kaulmann et al., 2007; cited from earlier work

T2 sequence (P42588 whole entry): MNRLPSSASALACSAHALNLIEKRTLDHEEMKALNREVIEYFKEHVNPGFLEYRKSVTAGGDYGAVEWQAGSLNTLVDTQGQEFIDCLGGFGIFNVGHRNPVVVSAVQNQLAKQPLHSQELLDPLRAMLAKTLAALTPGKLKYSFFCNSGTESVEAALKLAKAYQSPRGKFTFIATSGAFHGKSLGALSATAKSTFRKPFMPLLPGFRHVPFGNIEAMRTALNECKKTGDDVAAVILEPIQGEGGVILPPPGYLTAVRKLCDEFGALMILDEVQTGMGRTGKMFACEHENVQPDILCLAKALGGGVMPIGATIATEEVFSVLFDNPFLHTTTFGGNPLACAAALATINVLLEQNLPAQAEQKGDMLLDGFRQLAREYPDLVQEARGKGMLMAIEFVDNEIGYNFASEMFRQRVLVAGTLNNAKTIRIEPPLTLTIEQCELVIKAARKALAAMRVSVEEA
Chain of gene product of ygjG (P42588 whole entry): as above
T1 sequence (B2HN69 whole entry): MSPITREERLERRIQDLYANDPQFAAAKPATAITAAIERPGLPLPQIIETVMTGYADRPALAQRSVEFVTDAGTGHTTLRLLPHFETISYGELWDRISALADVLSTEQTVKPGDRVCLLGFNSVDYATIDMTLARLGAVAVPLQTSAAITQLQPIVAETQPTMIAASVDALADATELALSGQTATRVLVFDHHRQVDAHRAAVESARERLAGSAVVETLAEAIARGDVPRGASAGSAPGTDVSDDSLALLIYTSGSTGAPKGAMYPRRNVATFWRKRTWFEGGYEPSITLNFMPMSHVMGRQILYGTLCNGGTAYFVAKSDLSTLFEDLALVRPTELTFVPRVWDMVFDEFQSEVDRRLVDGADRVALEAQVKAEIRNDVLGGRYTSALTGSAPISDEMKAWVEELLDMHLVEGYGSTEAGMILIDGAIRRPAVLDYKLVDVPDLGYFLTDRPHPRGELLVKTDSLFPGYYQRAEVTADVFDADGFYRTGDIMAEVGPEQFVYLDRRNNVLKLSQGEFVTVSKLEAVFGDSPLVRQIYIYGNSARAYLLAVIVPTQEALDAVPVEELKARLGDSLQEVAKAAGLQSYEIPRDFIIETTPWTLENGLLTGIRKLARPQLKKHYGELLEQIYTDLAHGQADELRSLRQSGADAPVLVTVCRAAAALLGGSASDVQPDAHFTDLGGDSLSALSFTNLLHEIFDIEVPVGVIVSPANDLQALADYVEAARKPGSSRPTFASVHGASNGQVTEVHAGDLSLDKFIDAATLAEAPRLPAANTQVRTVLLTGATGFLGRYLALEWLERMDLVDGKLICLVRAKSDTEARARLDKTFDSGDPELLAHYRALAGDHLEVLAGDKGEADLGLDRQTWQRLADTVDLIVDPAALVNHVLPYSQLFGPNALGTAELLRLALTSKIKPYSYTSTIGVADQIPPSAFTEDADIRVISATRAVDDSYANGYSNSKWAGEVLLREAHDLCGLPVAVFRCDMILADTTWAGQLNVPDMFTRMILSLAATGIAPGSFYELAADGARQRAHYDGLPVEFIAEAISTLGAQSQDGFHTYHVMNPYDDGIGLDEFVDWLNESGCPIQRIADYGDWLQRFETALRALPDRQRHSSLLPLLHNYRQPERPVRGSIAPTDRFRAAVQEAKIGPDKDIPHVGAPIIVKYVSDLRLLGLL

In the case of `COC(=O)CCCC(=O)O` [glutarate methyl ester], the “accepted as substrate as confirmed against the empty vector control” value (“accepted as substrate as confirmed” for short) [1] is reported as “accepted”, the “accepted as substrate as confirmed” value [2] is reported as “accepted” and the “accepted as substrate as confirmed” value [3] is reported as “accepted”. For the same compound, the “accepted as substrate as confirmed” value [4] was “accepted”.

With `NCCCCCN` [cadaverine] the “accepted as substrate as confirmed” value [5] was “accepted”, the “accepted as substrate as confirmed” value [6] was “accepted” and the “accepted as substrate as confirmed” value [7] was “accepted”. The “accepted as diamine substrate” value (gene product of ygjG) was “accepts”, the “activity for the substrate” value [8] was “demonstrated activity” and the “accepted as substrate as confirmed” value [9] was “accepted”.

With `O=CCCCC(=O)O` [glutarate semialdehyde] the “accepted as substrate, concluded from the reversibility of the ω-transaminase activity” value [10] was “accepted”, the “accepted as substrate as confirmed” value [4] was “accepted” and the “accepted as substrate as confirmed” value [11] was “accepted”.

For `NCCCCCC(=O)O` [6-aminohexanoate], the “activity for the conversion to adipate semialdehyde” value [12] is listed as “demonstrated analogous activity”, the “activity for the conversion to adipate semialdehyde” value [13] is listed as “demonstrated analogous activity” and the “accepted as amino donor” value [14] is listed as “demonstrated analogous activity”.
